“Also recorded” adds a separate entry of the source. Marks after values point to notes of the source that are not given here. No end group written: not given here.

One experiment relates to S. gordonii Challis Bt. Description: growth inhibition by tryglysins. The settings on record: 100 nM tryglysin, CDM, 37°C, 5% CO2, OD600 every hour; summary of growth curves. Set-up: key: −: not inhibited; +: mildly inhibited; ++: inhibited. Format: cell-based, Streptococcus gordonii. The method, then:
(§1) For experiments to examine the effect of tryglysins, bacterial strains were grown from prestored glycerol stocks at −80°C and inoculated into THY broth. […] To monitor growth, OD600 was measured using a GENESYS 30 Vis spectrophotometer every hour.

Experiment [1] has as its system PwgkA-luxAB reporter (PdrA/SHP system). Description: luciferase assay, chromosomal PwgkA-luxAB reporter, wild type. The following applies: CDM, 100 nM tryglysin.
In another experiment the test system is S. agalactiae A909. Description: growth inhibition by tryglysins. The settings on record: 100 nM tryglysin, CDM, 37°C, 5% CO2, OD600 every hour; summary of growth curves. Set-up: key: −: not inhibited; +: mildly inhibited; ++: inhibited. In kind it is cell-based, Streptococcus agalactiae. As for the experimental part:
as §1

The test system of a further experiment is L. lactis ATCC 11454. Description: growth inhibition by tryglysins. The settings on record: 100 nM tryglysin, CDM, 37°C, 5% CO2, OD600 every hour; summary of growth curves. Set-up: key: −: not inhibited; +: mildly inhibited; ++: inhibited. Format: cell-based, Lactococcus lactis. As for the experimental part: as §1
Another experiment deals with E. faecalis V583. Description: growth inhibition by tryglysins. Format: cell-based, Enterococcus faecalis. Set-up: key: −: not inhibited; +: mildly inhibited; ++: inhibited. The following applies: 100 nM tryglysin, CDM, 37°C, 5% CO2, OD600 every hour; summary of growth curves. As for the experimental part: as §1
For experiment [2], the system named is S. mutans UA159. Description: cell chaining by microscopy. In kind it is cell-based, Streptococcus mutans. The following applies: 100 nM. The method, then: For microscopic analysis of live cells exposed to tryglysins, S. mutans strains were inoculated and grown as described above in the “Luciferase assays with chromosomal reporters” section. […] For microscopic analysis of samples, 2 μl of live cells was taken at 2 h, 5 h, and 7 h after the addition of tryglysins and examined using an Olympus CKX53 inverted microscope with a 40× LCACHN-iPC infinity objective (LCACHN40XIPC; numerical aperture, 0.55) connected to a SC50 camera (Olympus). Images were processed using Olympus Stream Image Analysis software (Olympus).
For microscopic analysis of fixed cells exposed to tryglysin A, S. mutans strains were inoculated and grown as described above in the “Luciferase assays with chromosomal reporters” section. […] Supernatant was discarded, and cells were resuspended in 1 ml of fresh CDM. Resuspended cells were dropped into 10 ml of ice-cold 80% methanol and incubated for 1 h at room temperature. Afterwards, 800 μl of 4% paraformaldehyde was added to each methanol cell suspension. The mixture was incubated at room temperature for 5 min, and cells were spun down at 2,500 × g for 10 min. Supernatant was discarded, and cells were resuspended in 200 to 800 μl chilled GTE buffer (50 mM glucose, 20 mM Tris-HCl [pH 7.5], 1 mM EDTA). Cells were kept at 4°C overnight, and then 2 to 5 μl of cells in GTE buffer were placed on a microscope slide. Prepared slides were examined using an Olympus BX51 fluorescence microscope with a 100× UPLFLN objective (UPLFLN 100XO2; numerical aperture, 1.3) connected to an Olympus DP72 Single Chip color charge-coupled-device (CCD) camera. Images were processed using ImageJ 1.52i ([80]). […] Cells were classified as being in chains greater than three per chain or equal to or lesser than three per chain. The percentage of cells belonging to either of these categories was calculated as the number of cells in the category/total number of cells. […] For statistical analysis, data were analyzed via a one-way analysis of variance (ANOVA) with Dunnet’s multiple comparison posttest in Graph Pad Prism.

Experiment [3] concerns S. mutans UA159. Description: CFU/ml assay (bacteriostatic or bactericidal). The settings on record: 100 nM, CDM; for recovery of viability: 24 h; for mode of action on viability: overall effect. In kind it is cell-based, Streptococcus mutans. The method, then: To perform CFU/milliliter assays, S. mutans was grown overnight, washed, and resuspended in CDM as outlined above in the “Luciferase assays with chromosomal reporters” section, with the exception that replicate tubes for harvest at each time point for both no-tryglysin and tryglysin-treated conditions were inoculated from bacterial cultures resuspended overnight. […] At this time point (0 h) and at 1, 2, 4, 6, 8 and 24 h after tryglysin addition, a set of no-tryglysin and tryglysin-treated tubes were harvested. At each time point, 100 μl from each tube in a set was harvested and diluted 1:10 successively in fresh THY. Dilutions from 10^−3 to 10^−6 (depending on the time point) were plated as follows: for each dilution, 10 μl was plated in triplicate on THY agar plates and allowed to drip vertically down the plate. This allowed for the spread of S. mutans colonies for later CFU/ml counting. After each dilution plating, plates were placed at 37°C and incubated for 48 h. […] After 2 days of incubation, colonies were counted for each time point, replicate, and condition, and the number of CFU/milliliter was calculated. Drip plates were considered to have accurate counts if colonies were between 10 and 150 colonies per drip. […] Statistical analysis was performed using a one-way ANOVA with Sidak’s multiple comparison posttest on Graph Pad Prism.

A further experiment deals with S. bovis JB1. Description: growth inhibition by tryglysins. Set-up: key: −: not inhibited; +: mildly inhibited; ++: inhibited. The settings on record: 100 nM tryglysin, CDM, 37°C, 5% CO2, OD600 every hour; summary of growth curves. In kind it is cell-based, Streptococcus bovis. The method, then:
as §1

Experiment [4] concerns S. mutans UA159. Description: growth inhibition by tryglysins. In kind it is cell-based, Streptococcus mutans. Set-up: key to Level of inhibition: −: not inhibited; +: mildly inhibited; ++: inhibited. The settings on record: for Level of inhibition: 100 nM tryglysin, 37°C, 5% CO2, OD600 every hour, summary of growth curves; for growth inhibition at 100 nM (titration): 9-h growth assay, Fig. 6. The method, then:
as §1

For a further experiment, the system named is S. ferus DSM 20646. Description: growth inhibition by tryglysins. Set-up: key to Level of inhibition: −: not inhibited; +: mildly inhibited; ++: inhibited. The following applies: CDM; for Level of inhibition: 100 nM tryglysin, 37°C, 5% CO2, OD600 every hour, summary of growth curves; for growth inhibition at 100 nM (titration): Fig. 6. In kind it is cell-based, Streptococcus ferus. As for the experimental part:
as §1

The test system of another experiment is S. mitis CCUG 31611. Description: growth inhibition by tryglysins. Format: cell-based, Streptococcus mitis. Set-up: key: −: not inhibited; +: mildly inhibited; ++: inhibited. The following applies: 100 nM tryglysin, CDM, 37°C, 5% CO2, OD600 every hour; summary of growth curves. The method, then: as §1
In a further experiment the test system is S. pyogenes NZ131. Description: growth inhibition by tryglysins. In kind it is cell-based, Streptococcus pyogenes. Set-up: key: −: not inhibited; +: mildly inhibited; ++: inhibited. The settings on record: 100 nM tryglysin, CDM, 37°C, 5% CO2, OD600 every hour; summary of growth curves. The method, then: as §1
A further experiment relates to S. oralis 108. Description: growth inhibition by tryglysins. In kind it is cell-based, Streptococcus oralis. Set-up: key: −: not inhibited; +: mildly inhibited; ++: inhibited. The following applies: 100 nM tryglysin, CDM, 37°C, 5% CO2, OD600 every hour; summary of growth curves. As for the experimental part: as §1
The subject of experiment [5] is Pshp-luxAB reporter (PdrA/SHP system). Description: luciferase assay, chromosomal Pshp-luxAB reporter, wild type. The following applies: CDM; for induction of Pshp-luxAB by tryglysins: 100 nM tryglysin.
A further experiment concerns S. pneumoniae D39. Description: growth inhibition by tryglysins. Format: cell-based, Streptococcus pneumoniae. Set-up: key to Level of inhibition: −: not inhibited; +: mildly inhibited; ++: inhibited. The following applies: for Level of inhibition: 100 nM tryglysin, CDM, 37°C, 5% CO2, OD600 every hour, summary of growth curves. As for the experimental part: as §1
For experiment [6], the system named is S. mutans UA159. Description: growth inhibition by UV-exposed tryglysin A. Format: cell-based, Streptococcus mutans. The following applies: short-wavelength UV light 1 h, 2 h or 4 h; 100 or 500 nM tryglysin A; CDM. As for the experimental part: To monitor growth, OD600 was measured using a GENESYS 30 Vis spectrophotometer every hour, and data were plotted using Graph Pad Prism 8.0.0.

Setting [7] is: 5 h, A: one-way ANOVA with Dunnet's posttest.
[8] abbreviates: 7 h, A: one-way ANOVA with Dunnet's posttest.

On to “VNCWGKH (also: sidechain bridge or staple (positions not given here)) [tryglysin B, 7-mer macrocyclic peptide VNCWGKH carrying the tetrahydro[5,6]benzindole modification, predicted product of the S. mutans wgk cluster]”, for which the Level of inhibition result in the experiment on S. gordonii Challis Bt is on record as “+”; in the experiment on S. agalactiae A909 it was “+”; in the experiment on L. lactis ATCC 11454 it was “−”; in the experiment with E. faecalis V583 it was “−”; in the experiment on S. bovis JB1 it was “+”; in the experiment with S. mutans UA159 [4] (CDM) it was “++”. For the same substance, the Level of inhibition entry is on record as “++” in the experiment on S. ferus DSM 20646; “++” in the experiment with S. mitis CCUG 31611; “−” with S. pyogenes NZ131; “++” with S. oralis 108; “++” in the experiment with S. pneumoniae D39. For the same substance, in experiment [1], the “induction of PwgkA-luxAB by tryglysins” value is listed as “do not induce the system”. The figures for the cell chaining result with S. mutans UA159 [2] (2 h), in the experiment on S. mutans UA159 [2] (setting [7]) and in the experiment with S. mutans UA159 [2] (setting [8]) were “small chains were observed”, “appeared to do the same” and “appeared to do the same”, respectively. In addition, in the experiment on S. mutans UA159 [3], the recovery of viability result is reported as “treated cells were able to overcome this by 24 h”. Also, the “mode of action on viability” value in the experiment with S. mutans UA159 [3] is on record as “bacteriostatic activities rather than bactericidal”. The “optical density of cultures parallel to CFU assay” value in the experiment on S. mutans UA159 [4] is “A proportionate inhibition and restoration of growth were observable by optical density measurements”. Besides, the “growth inhibition at 100 nM (titration)” value with S. mutans UA159 [4] (CDM) and with S. ferus DSM 20646 was “substantially inhibited” each time. Besides, the “concentration required for complete growth inhibition” value with S. mutans UA159 [4] (CDM, over the 9-h growth assay, Fig. 6A) is 1 µM. Further, in [5], the “induction of Pshp-luxAB by tryglysins” value is on record as “do not induce the system”.

Consider GLDWWSL [XIP, reference compound], for which, in experiment [5] (1 μM, Fig. S2C, performed twice), the “induction of Pshp-luxAB reporter (cross talk)” value is recorded as “did not observe any induction”.

Take “VNSWGKH (also: sidechain bridge or staple (positions not given here)) [tryglysin A, macrocyclic 7-mer RiPP from S. ferus, VNSWGKH with tetrahydro[5,6]benzindole modification]”: the Level of inhibition entry with S. gordonii Challis Bt is “+”; in the experiment with S. agalactiae A909 it was “++”; in the experiment with L. lactis ATCC 11454 it was “−”; in the experiment with E. faecalis V583, “−”; in the experiment on S. bovis JB1, “+”; in the experiment on S. mutans UA159 [4] (CDM), “++”. The Level of inhibition result with S. ferus DSM 20646 was “++”; in the experiment with S. mitis CCUG 31611, “++”; in the experiment on S. pyogenes NZ131, “−”; in the experiment with S. oralis 108 it was “++”; in the experiment on S. pneumoniae D39, “++^b”. Further, the “induction of PwgkA-luxAB by tryglysins” value in experiment [1] is recorded as “do not induce the system”. The cell chaining result in the experiment on S. mutans UA159 [2] (2 h) is reported as “small chains were observed”; with S. mutans UA159 [2] (setting [7]) it was “significantly increased”; in the experiment with S. mutans UA159 [2] (setting [8]), “significantly increased”. Moreover, in the experiment on S. mutans UA159 [3], the recovery of viability result is recorded as “treated cells were able to overcome this by 24 h”. Further, the “mode of action on viability” value in the experiment on S. mutans UA159 [3] is “bacteriostatic activities rather than bactericidal”. Moreover, the “inhibitory activity after UV exposure” value in the experiment on S. mutans UA159 [6] is listed as “Proportionate decrease of inhibitory activity was observed; also recorded: inhibitory activity can be inactivated by exposure to UV light”. For the same substance, the “optical density of cultures parallel to CFU assay” value with S. mutans UA159 [4] is “A proportionate inhibition and restoration of growth were observable by optical density measurements”. For the same substance, the “growth inhibition at 100 nM (titration)” value in the experiment with S. mutans UA159 [4] (CDM) and with S. ferus DSM 20646 was “substantially inhibited” in each case. Besides, the “induction of Pshp-luxAB by tryglysins” value in [5] is “do not induce the system”. Also, the reproducibility of inhibition entry in the experiment with S. pneumoniae D39 (100 nM, three experiments) is listed as “b For S. pneumoniae D39, two experiments showed inhibition with 100 nM tryglysin A, one experiment did not”.

The values are drawn from PMC8092268, “Quorum Sensing in Streptococcus mutans Regulates Production of Tryglysin, a Novel RaS-RiPP Antimicrobial Compound” (mBio, 2021).
